Each structure is given as a SMILES string. Structures can show the parent of a compound that is named as a salt. Where two headings read alike, the source gives them in different places.

The test system of this test is platelet aggregation in platelet-rich plasma (PRP). Nature of the test: In-Vitro Platelet Aggregation in PRP (ADP-induced). Conditions: dog PRP, ADP 50 μM final concentration, 1 min preincubation at 37° C., aggregation monitored 1 min, unit inferred, read-out: IC50 (dosage at which 50% of platelet aggregation is inhibited). Format: cell-based, dogs. As for the experimental part: In-Vitro Platelet Aggregation in PRP
Healthy male or female dogs were fasted for 8 hours prior to drawing blood; then 30 mL whole blood was collected using a butterfly needle and 30 mL plastic syringe with 3 mL of 0.129M buffered sodium citrate (3.8%). The syringe was rotated carefully as blood was drawn to mix the citrate. Platelet-rich plasma (PRP) was prepared by centrifugation at 975×g for 3.17 minutes at room temperature allowing the centrifuge to coast to a stop without braking. The PRP was removed from the blood with a plastic pipette and placed in a plastic-capped 50 mL Corning conical sterile centrifuge tube which was held at room temperature. Platelet-poor plasma (PPP) was prepared by centrifuging the remaining blood at 2000×g for 15 minutes at room temperature allowing the centrifuge to coast to a stop without braking. The PRP was adjusted with PPP to a count of 2-3×10^8 platelets/mL. The PRP preparation (400 μL) and 50 μL of the compound solution to be tested or saline were preincubated for 1 minute at 37° C. in a BioData aggregometer (BioData, Horsham, Pa.). Adenosine-5'-diphosphate (ADP, 50 μL, 50 μM final concentration) was added to the cuvettes and the aggregation was monitored for 1 minute. All compounds are tested in duplicate. Results are calculated as follows: Percent of control=[(maximal OD minus initial OD of compound) divided by (maximal OD minus initial OD of control saline)]×100. The percent inhibition equals 100-(percent of control).
The compounds tested and their median inhibitory concentrations (IC50) are recorded in Table 1. The IC50 (dosage at which 50% of platelet aggregation is inhibited) were calculated by linear regression of the dose response curve.

Where [1] appears, read: Canis lupus familiaris, Platelet.

The IC50 is the midpoint of a concentration-inhibition curve. Take `N=C(N)c1ccc(NC(=O)CCC(=O)N[C@@H](CC(=O)O)C(O)c2ccccc2)cc1` (single isomer, unassigned) [Ex 2 Step 6, 3S-[[4-[[4-(aminoiminomethyl)phenyl]amino]-1,4dioxobutyl]amino]-4-hydroxy-phenyl-butanoic acid, trifluoroacetate]: the concentration for half-maximal inhibition (IC50) stood at 1600 nM.

For the compound `N=C(N)c1ccc(NC(=O)CCC(=O)N[C@@H](CC(=O)O)C(O)c2ccccc2)cc1` (single isomer, unassigned) [Ex 3 Step 2, 3S-[[4-[[4-(aminoiminomethyl)phenyl]amino]-1,4-dioxobutyl]amino]-4-hydroxy-phenylbutanoic acid, trifluoroacetate], the IC50 was 600 nM.

As to `N=C(N)c1ccc(NC(=O)CCC(=O)N[C@@H](CC(=O)O)C(O)c2ccc(F)cc2)cc1` (single isomer, unassigned) [Ex 4 Step 5, 3S-[[4-[[4-(aminoiminomethyl)phenyl]amino]-1,4-dioxobutyl]amino]-4-hydroxy-(4-fluoro-phenyl)butanoic acid, trifluoroacetate], the IC50 is 150 nM.

For `N=C(N)c1ccc(NC(=O)CCC(=O)N[C@@H](CC(=O)O)C(O)c2ccc(F)cc2)cc1` (single isomer, unassigned) [Ex 5 Step 2, 3S-[[4-[[4-(aminoiminomethyl)-phenyl]amino]-1,4-]dioxobutyl]amino]-4-hydroxy-(4-fluoro-phenyl)butanoic acid, trifluoroacetate], the IC50 worked out at 800 nM.

As for `N=C(N)c1ccc(NC(=O)CCC(=O)N[C@@H](CC(=O)O)C(O)c2ccc3c(c2)OCO3)cc1` (single isomer, unassigned) [Ex 9 Step 6, 3S-[[4-[[4-(aminoiminomethyl)phenyl]amino]-1,4-dioxobutyl]amino]-4-hydroxy-[5-(1,3-benzodioxolyl)]butanoic acid, trifluoroacetate], the half-inhibitory concentration (IC50) came to 350 nM.

Consider `N=C(N)c1ccc(NC(=O)CCC(=O)N[C@@H](CC(=O)O)C(O)c2ccc3c(c2)OCO3)cc1` (single isomer, unassigned) [Ex 10 Step 2, 3S-[[4-[[4-(aminoiminomethyl)phenyl]amino]-1,4-dioxobutyl]amino-4-hydroxy-4-[5-(1,3-benzodioxolyl)]butanoic acid, trifluoroacetate], for which the 50% inhibitory concentration (IC50) worked out at 1300 nM.

For the compound `N=C(N)c1ccc(NC(=O)CCC(=O)N[C@H]2CC(=O)OC2c2ccc3c(c2)OCO3)cc1` (single isomer, unassigned; diastereoisomer 1) [Ex 9 Step 5, N-[4-(aminoiminomethyl)phenyl]-N'-[tetrahydro-5-oxo-2-[5-(1,3-benzodioxolyl)]-3S-furanyl]butanediamide, Trifluoroacetate; Diastereoisomer 1], the IC50 came out at 430 nM.

Turning to `N=C(N)c1ccc(NC(=O)CCC(=O)N[C@H]2CC(=O)OC2c2ccc3c(c2)OCO3)cc1` (single isomer, unassigned; diastereoisomer 2) [Ex 10 Step 1], the IC50 came out at 3000 nM.

As to `N=C(N)c1ccc(NC(=O)CCC(=O)N[C@H]2CC(=O)OC2c2ccc(F)cc2)cc1` (single isomer, unassigned; diastereoisomer a) [Ex 4 Step 4], the half-inhibitory concentration (IC50) under setting [1] was 500 nM.

`N=C(N)c1ccc(NC(=O)CCC(=O)N[C@H]2CC(=O)OC2c2ccccc2)cc1` (single isomer, unassigned; isomer a) [Ex 2 Step 5, N-[4-(aminoiminomethyl)phenyl]-N'-(tetrahydro-5-oxo-2-phenyl-3S-furanyl)butanediamide, Trifluoroacetate (Isomer A)]: the half-inhibitory concentration (IC50) worked out at 650 nM.

On to `N=C(N)c1ccc(NC(=O)CCC(=O)N[C@H]2CC(=O)OC2c2ccccc2)cc1` (single isomer, unassigned; isomer b) [Ex 3 Step 1, N-[4-(aminoiminomethyl)phenyl]-N'-(tetrahydro-5-oxo-2-phenyl-3S-furanyl)butanediamide, trifluoroacetate (Isomer B)], for which the half-inhibitory concentration (IC50) amounted to 2500 nM.

For `N=C(N)c1ccc(NC(=O)CCC(=O)N[C@@H]2COC(=O)C2)cc1` [Ex 1 Step 4, N-[4-(aminoiminomethyl)phenyl]-N'-(tetrahydro-5-oxo-3S-furanyl)butanediamide, Trifluoroacetate], under setting [1], the 50% inhibitory concentration (IC50) amounted to 3000 nM.

Consider `N=C(N)c1ccc(NC(=O)CCC(=O)N[C@H](CO)CC(=O)O)cc1` [Ex 1 Step 5, 3S-[[4-[[4-aminoiminomethyl)phenyl]amino]-1,4-dioxobutyl]amino]-4-hydroxybutanoic acid, trifluoroacetate], for which the half-maximal inhibitory concentration (IC50) under setting [1] was 700 nM.

For the compound `N=C(N)c1ccc(NC(=O)CCC(=O)NC(CC(=O)O)C(O)c2nccs2)cc1` (stereo not drawn) [Ex 6 Step 6, 3S-[[4-[[4-(aminoiminomethyl)phenyl]amino]-1,4-dioxobutyl]amino]-4-hydroxy-2-thiazolylbutanoic acid, trifluoroacetate], the IC50 amounted to 450 nM.

For the compound `C=CC(O)[C@H](CC(=O)O)NC(=O)CCC(=O)Nc1ccc(C(=N)N)cc1` (stereo partly drawn) [Ex 7 Step 5, 3S-[[4-[[4-(aminoiminomethyl)phenyl]amino]-1,4-dioxobutyl]amino]-4-hydroxy-hex-5-enoic acid, trifluoroacetate], the 50% inhibitory concentration (IC50) under setting [1] turned out to be 290 nM.

On to `N=C(N)c1ccc(NC(=O)CCC(=O)NC(CC(=O)O)c2ccccc2O)cc1` (centres unmarked) [Ex 8 Step 1, 3-[[4-[[4-(aminoiminomethyl)phenyl]-amino]-1,4-dioxobutyl]amino-]3(-hydroxyphenyl)propanoic acid], for which the IC50 under setting [1] came out at 260 nM.

`N=C(N)c1ccc(NC(=O)CCC(=O)NC2CC(=O)Oc3ccccc32)cc1` (centres unmarked) [Ex 8 Step 2, N-[4-(aminoiminomethyl)phenyl]-N'-[3,4-dihydro-2-oxo-2H-1-benzopyran-4-yl]butanediamide, Trifluoroacetate]: under setting [1], the IC50 came out at 200 nM.

The values above are taken from patent US6037365A, “Aminobenzamidinosuccinyl lactone derivatives useful as inhibitors of platelet aggregation” (G.D. Searle & Co., priority 1998, dated 2000).
